According to patent publication US11000033B2, “Ketone or oxime compound, and herbicide” (NISSAN CHEMICAL CORPORATION, priority 2014, dated 2021):

How the values were obtained:
Type in all cases: in vivo
[1] = tested on: Echinochloa oryzacola Vasing.; assay: Test Example 1: herbicidal activity, application before weed generation in submerged conditions (symbol A); conditions: application herbicide amount 320 g/ha
Procedure, shortened: (§1)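 Mixed weed seeds sown in alluvial soil under 4 cm of water, with rice seedlings at the 2.5-leaf stage added. Same-day treatment: emulsion diluted to a set herbicide amount onto the water. Three weeks at 25–30 °C, then graded on a six-step scale.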

wheat = assay: Test Example 5: effect on crop by foliage application, plastic box (symbol e); conditions: 320 g/ha, 3 weeks after application
Procedure, shortened: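 Plants were raised from seed in a greenhouse (25° C. to 30° C.) after sowing in a plastic box of sterilized diluvial soil.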

Scirpus juncoides = assay: Test Example 1: herbicidal activity, application before weed generation in submerged conditions (symbol B); conditions: application herbicide amount 320 g/ha
Procedure, shortened: as §1

Alopecurus myosuroides [2] = assay: Test Example 4: herbicidal effect by soil treatment (symbol J); conditions: application herbicide amount 320 g/ha
Procedure, shortened: (§2)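 Seeds were sown in sterilized diluvial soil, covered with about 1.5 cm of soil, and the soil surface was sprayed with a water-diluted emulsion of the compound at a predetermined rate. Plants grew in a greenhouse at 25° C. to 30° C.; effects were scored visually 3 weeks after application.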

corn = assay: Test Example 4: effect on crop by soil treatment (symbol c); conditions: application herbicide amount 320 g/ha
Procedure, shortened: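 Plants are raised in a greenhouse (25° C. to 30° C.) from spot-sown seed, which sits under about 1.5 cm of sterilized diluvial soil in a box shared with weed species.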

Stellaria media = assay: Test Example 5: herbicidal effect by foliage application, plastic box (symbol P); conditions: 320 g/ha, 3 weeks after application
Procedure, shortened: (§3)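 Herbicide, formulated as an emulsion and diluted in water, is sprayed onto the aerial parts of 14-day seedlings. These were grown at 25° C. to 30° C. in sterilized diluvial soil; effects are graded after 3 weeks.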

Alopecurus myosuroides [3] = assay: Test Example 5: herbicidal effect by foliage application, plastic box (symbol J); conditions: 320 g/ha, 3 weeks after application
Procedure, shortened: as §3

Leptochloa chinensis = assay: Test Example 3: herbicidal effect by foliage application, Wagner pot (symbol D); conditions: application herbicide amount 320 g/ha
Procedure, shortened: (§4)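 The compound, formulated as an emulsion and diluted with water to a predetermined rate, is applied uniformly to leaves of two-week-old seedlings growing in submerged alluvial soil at 25–30 °C. Rice is included. Each plant is assessed 3 weeks later using defined criteria.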

Cyperus difformis = assay: Test Example 3: herbicidal effect by foliage application, Wagner pot (symbol E); conditions: application herbicide amount 320 g/ha
Procedure, shortened: as §4

[4] = tested on: Echinochloa crus-galli var. crus-galli; assay: Test Example 3: herbicidal effect by foliage application, Wagner pot (symbol H); conditions: application herbicide amount 320 g/ha
Procedure, shortened: as §4

rapeseed = assay: Test Example 4: effect on crop by soil treatment (symbol g); conditions: application herbicide amount 320 g/ha
Procedure, shortened: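 Diluvial soil (sterilized) in boxes; seeds placed spot-wise alongside weed species; ~1.5 cm covering soil. Greenhouse, 25–30° C.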

Abutilon theophrasti = assay: Test Example 5: herbicidal effect by foliage application, plastic box (symbol M); conditions: 320 g/ha, 3 weeks after application
Procedure, shortened: as §3

Apera spica-venti = assay: Test Example 5: herbicidal effect by foliage application, plastic box (symbol L); conditions: 320 g/ha, 3 weeks after application
Procedure, shortened: as §3

[5] = tested on: directly sowed rice plant; assay: Test Example 3: effect on crop by foliage application, Wagner pot (symbol b); conditions: application herbicide amount 320 g/ha
Procedure, shortened: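 Greenhouse culture at 25–30 °C of seeded rice, Cyperus difformis, Leptochloa chinensis and Echinochloa crus-galli var. crus-galli, in alluvial soil held under 0.1–0.5 cm of water in a Wagner pot.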

Digitaria ciliaris = assay: Test Example 4: herbicidal effect by soil treatment (symbol F); conditions: application herbicide amount 320 g/ha
Procedure, shortened: as §2

## CON=C(C)CC1CC(OC(=O)C(C)(C)F)=C(c2c(C)cc(C)cc2C)C1=O (stereo not drawn) [1-039]
[1]
  Herbicidal effect grade, A: Echinochloa oryzacola Vasing.: 5 (Herbicidal ratio of 90% or more (almost completely withered))
wheat
  e: wheat, effect on crop grade: 5 (Herbicidal ratio of 90% or more (almost completely withered))
Scirpus juncoides
  Herbicidal effect grade, B: Scirpus juncoides: 5 (Herbicidal ratio of 90% or more (almost completely withered))
Alopecurus myosuroides [2]
  J (Alopecurus myosuroides) herbicidal effect grade: 5 (Herbicidal ratio of 90% or more (almost completely withered))
corn
  c (corn) effect on crop grade: 4 (Herbicidal ratio of 70% or higher and lower than 90%)
Stellaria media
  P: Stellaria media, herbicidal effect grade: 3 (Herbicidal ratio of 40% or higher and lower than 70%)
Alopecurus myosuroides [3]
  J: Alopecurus myosuroides, herbicidal effect grade: 5 (Herbicidal ratio of 90% or more (almost completely withered))
Leptochloa chinensis
  herbicidal effect on D (Leptochloa chinensis), grade 0-5: 5 (Herbicidal ratio of 90% or more (almost completely withered))
Cyperus difformis
  herbicidal effect on E, grade 0-5: 5 (Herbicidal ratio of 90% or more (almost completely withered))
[4]
  herbicidal effect on H (Echinochloa crus-galli var. crus-galli), grade 0-5: 5 (Herbicidal ratio of 90% or more (almost completely withered))
rapeseed
  g (rapeseed) effect on crop grade: 4 (Herbicidal ratio of 70% or higher and lower than 90%)
Abutilon theophrasti
  M: Abutilon theophrasti, herbicidal effect grade: 4 (Herbicidal ratio of 70% or higher and lower than 90%)
Apera spica-venti
  L: Apera spica-venti, herbicidal effect grade: 5 (Herbicidal ratio of 90% or more (almost completely withered))
[5]
  effect on crop b (directly sowed rice plant), grade 0-5: 5 (Herbicidal ratio of 90% or more (almost completely withered))
Digitaria ciliaris
  F (Digitaria ciliaris) herbicidal effect grade: 5 (Herbicidal ratio of 90% or more (almost completely withered))

## COCC(CC1CC(O)=C(c2c(C)cc(C)cc2C)C1=O)=NOC (stereo not drawn) [1-040]
[1]
  Herbicidal effect grade, A: Echinochloa oryzacola Vasing.: 3 (Herbicidal ratio of 40% or higher and lower than 70%)
wheat
  e: wheat, effect on crop grade: 0 (Herbicidal ratio of 5% or lower (almost no effect))
Scirpus juncoides
  Herbicidal effect grade, B: Scirpus juncoides: 2 (Herbicidal ratio of 20% or higher and lower than 40%)
Alopecurus myosuroides [2]
  J (Alopecurus myosuroides) herbicidal effect grade: 4 (Herbicidal ratio of 70% or higher and lower than 90%)
corn
  c (corn) effect on crop grade: 0 (Herbicidal ratio of 5% or lower (almost no effect))
Stellaria media
  P: Stellaria media, herbicidal effect grade: 0 (Herbicidal ratio of 5% or lower (almost no effect))
Alopecurus myosuroides [3]
  J: Alopecurus myosuroides, herbicidal effect grade: 5 (Herbicidal ratio of 90% or more (almost completely withered))
Leptochloa chinensis
  herbicidal effect on D (Leptochloa chinensis), grade 0-5: 4 (Herbicidal ratio of 70% or higher and lower than 90%)
Cyperus difformis
  herbicidal effect on E, grade 0-5: 4 (Herbicidal ratio of 70% or higher and lower than 90%)
[4]
  herbicidal effect on H (Echinochloa crus-galli var. crus-galli), grade 0-5: 5 (Herbicidal ratio of 90% or more (almost completely withered))
rapeseed
  g (rapeseed) effect on crop grade: 3 (Herbicidal ratio of 40% or higher and lower than 70%)
Abutilon theophrasti
  M: Abutilon theophrasti, herbicidal effect grade: 1 (Herbicidal ratio of 5% or higher and lower than 20%)
Apera spica-venti
  L: Apera spica-venti, herbicidal effect grade: 5 (Herbicidal ratio of 90% or more (almost completely withered))
[5]
  effect on crop b (directly sowed rice plant), grade 0-5: 5 (Herbicidal ratio of 90% or more (almost completely withered))
Digitaria ciliaris
  F (Digitaria ciliaris) herbicidal effect grade: 4 (Herbicidal ratio of 70% or higher and lower than 90%)
